Patent US8975086B2, “Method for treating or preventing bladder cancer using the DEPDC1 polypeptide” (OncoTherapy Science, Inc., priority 2008, dated 2015)
Where a SMILES comes first, the peptide text is derived from it.

Key:
A20 (TNFAIP3) = assay: Quantitative RT-PCR of downstream gene A20 in UM-UC-3 cells; assay type: cell-based, human; conditions: UM-UC-3 cells transfected with siRNA, compared with siEGFP
Description: (§1) UM-UC-3 cells were transfected with siRNA against DEPDC1 (si-DEPDC1), ZNF224 (si-ZNF224-2) or EGFP (control siRNA). The target sequences of the synthetic oligo-duplex for siRNA against DEPDC1 (Sigma Aldrich) were as follows: si-DEPDC1,5′-CCAAAGUUCCGUAGUCUAA-3′(SEQ ID NO: 75), ZNF224 (si-ZNF224-2) or EGFP as described in “RNA interference assay” section.
Total RNAs were extracted from each sample at 12 hours and 24 hours after the transfection, labeled with Cy5 (for si-DEPDC1- and si-ZNF224-2-transfected cells) or Cy3 (for si-EGFP-transfected cells), and subjected to cohybridization onto cDNA microarrayslides containing 36468 cDNA or ESTs as described previously (Takata R, et al., Clin Cancer Res 2005 11:2625-36). […] For other genes, the Cy5/Cy3 ratio was calculated using the raw data of each samples. […] Validation of candidate downstream genes of both DEPDC1 and ZNF224 was carried out with quantitative RT-PCR analysis using the SYBR green dye (Rhoche) and the same amplified RNAs from UM-UC-3 cells used for cDNA microarray experiments, with each gene-specific primer as follows;
(§2) All experiments were performed in duplicate. The calculated quantity of the target gene for each sample was then divided by the average calculated quantity of beta 2-microglobulin (beta 2-MG) corresponding to each sample to give a relative expression of the target gene for each sample

DLG1 = assay: Quantitative RT-PCR of downstream gene DLG1 in UM-UC-3 cells; assay type: cell-based, human; conditions: UM-UC-3 cells transfected with siRNA, compared with siEGFP
Description: as §1
Total RNAs were extracted from each sample at 12 hours and 24 hours after the transfection, labeled with Cy5 (for si-DEPDC1- and si-ZNF224-2-transfected cells) or Cy3 (for si-EGFP-transfected cells), and subjected to cohybridization onto cDNA microarrayslides containing 36468 cDNA or ESTs as described previously (Takata R, et al., Clin Cancer Res 2005 11:2625-36). After normalization of the data, it was excluded genes from further analysis when Cy5 and Cy3 dyes yielded signals intensities lower than the cut-off value. For other genes, the Cy5/Cy3 ratio was calculated using the raw data of each samples. […] Validation of candidate downstream genes of both DEPDC1 and ZNF224 was carried out with quantitative RT-PCR analysis using the SYBR green dye (Rhoche) and the same amplified RNAs from UM-UC-3 cells used for cDNA microarray experiments, with each gene-specific primer as follows;
as §2

DEPDC1-ZNF224 complex = molecular target: T1, DEPDC1-ZNF224 complex (Homo sapiens, UniProt Q9NZL3, H562R/M118V); assay: Immunoprecipitation of exogenous DEPDC1-HA and ZNF224-FLAG complex in peptide-treated COS7 cells; assay type: cell-based; conditions: for complex formation between exogenously expressed DEPDC1-HA and ZNF224-Flag (immunoprecipitation): six peptides added 6 hours after transfection, immunoprecipitation fifteen hours later
T1 construct: expressed in transfected cells; host or cells: COS7 cells, transiently co-transfected (pCAGGS-type vectors)
Description: To confirm the interaction between DEPDC1 and ZNF224 in bladder cancer cells and identify the ZNF224-binding region in DEPDC1, the immunoprecipitation experiment was carried out as follows. First, it was confirmed interaction between endogenous DEPDC1 and exogenous ZNF224 by immunoprecipitation experiments using anti-DEPDC1 polyclonal antibody for immunoprecipitation and anti-FLAGM2 antibody (Amersham) for immunoblotting. To further determine the ZNF224-binding region in DEPDC1, it was cloned six partial constructs of DEPDC1 (DEPDC11-147, DEPDC1141-300, DEPDC1177-597, DEPDC1300-669, DEPDC1587-740 and DEPDC1654-811) into appropriate sites of COOH-terminal HA-tagged pCAGGS vector. The nucleotide sequence of each clones were determined with an ABI Prism 3700 DNA sequencer (Applied Biosystems, Foster City, Calif.), using each primer. Cell extracts from Cos7 cell line, transfected with each of plasmids expressing one of these six partial segments of DEPDC1, were precleared by incubation at 4 degrees C. for 1 hour with 100 micro 1 of protein G-agarose beads in final volumes of 2 mL of immunoprecipitation buffer (0.5% NP40, 50 mmol/L Tris-HCl, 150 mmol/L NaCl) in the presence of proteinase inhibitor. After centrifugation at 1,000 rpm for 5 minutes at 4 degrees C., the supernatants were incubated at 4 degrees C. with anti-HA rat for 1 hours. After the beads were collected from each sample by centrifugation at 5,000 rpm for 2 minutes and washed six times with 1 mL of immunoprecipitation buffer, the washed beads were re-suspended in 50 uL of Laemmli sample buffer and boiled for 3 minutes before the proteins were separated on 10% SDS-PAGE gels. Immunoblot was done using anti-HA rat antibody and anti-FLAGM2 monoclonal antibody, respectively (Sigma-Aldrich Co., St. Louis, Mo.).
To examine the effect of these polyarginine (11R)-linked peptides on inhibition of the DEPDC1-ZNF224 complex formation, they were co-transfected with DEPDC1 and ZNF224 constructs into COS7 cells. […] Immunoprecipitation were performed according to methods as described in “Identification of the ZNF224-binding regions in DEPDC1 protein” section.

UM-UC-3 cells [1] = assay: MTT and colony-formation assays of UM-UC-3 cells transfected with siRNA expression vectors; assay type: cell-based, human; conditions: UM-UC-3 cells transfected with siRNA expression vector, neomycin selection
Excerpt: si-ZNF224#2: 5′-CCGCAGGAACACATCAAGA-3′ (SEQ ID NO: 10) for the ZNF224-specific sequence. DNA sequences of all constructs were confirmed by DNA sequencing. Eight-micrograms each of siRNA-expression vector were transfected into UM-UC-3 cells (1×10^6 cells per 10 cm-dish), respectively, using FuGENE6 transfection reagent (Roche) according to the supplier's recommendations. To evaluate the knockdown effect of siRNAs by semi-quantitative RT-PCR with specific primers (see below), total RNAs were extracted from the transfected cells after 4-day incubation with neomycin (Geneticin, Invitrogen). The specific primer sets for RT-PCR are as follows; 5′-[…]-3′ (SEQ ID NO: 11) and 5′-[…]-3′ (SEQ ID NO: 12) for ZNF224;
5′-[…]-3′ (SEQ ID NO: 13) and 5′-[…]-3′ (SEQ ID NO: 14) for GAPDH as a quantitative control. The transfected UM-UC-3 cells were cultured for 21 or 14 days in the presence of 1.0 mg/ml of neomycin, and the number of colonies were counted by Giemsa staining. Viability of UM-UC-3 cells was evaluated by 3-(4,5-dimethylthiazol-2-yl)-2,5-diphenyltetrazolium bromide (MTT) assay at 14 days after the treatment of neomycin with cell counting kit-8 according to manufacturer's recommendation (Wako, Osaka, Japan). Absorbance at 570 nm wavelength was measured with a Microplate Reader 550 (Bio-Rad, Hercules, Calif.). These experiments were performed in triplicate.

ZNF224 transcript = assay: Semiquantitative RT-PCR of knockdown effect of ZNF224 siRNA expression vectors in UM-UC-3 cells; assay type: cell-based, human; conditions: compared with si-EGFP control
Description: It has been previously established a vector-based RNA interference (RNAi) system, psiU6BX3.0 that was designed to express small interfering RNAs (siRNA) in mammalian cells (Shimokawa T, et al., Cancer Res 2003 63:6116-20). Plasmids designed to express siRNA to ZNF224 were prepared by cloning of double-stranded oligonucleotides into the BbsI site of psiU6BX vectors. The target sequences of the synthetic oligonucleotides for RNAi were as follows:
si-ZNF224#2: 5′-CCGCAGGAACACATCAAGA-3′ (SEQ ID NO: 10) for the ZNF224-specific sequence. DNA sequences of all constructs were confirmed by DNA sequencing. […] To evaluate the knockdown effect of siRNAs by semi-quantitative RT-PCR with specific primers (see below), total RNAs were extracted from the transfected cells after 4-day incubation with neomycin (Geneticin, Invitrogen). […]
5′-[…]-3′ (SEQ ID NO: 13) and 5′-[…]-3′ (SEQ ID NO: 14) for GAPDH as a quantitative control. The transfected UM-UC-3 cells were cultured for 21 or 14 days in the presence of 1.0 mg/ml of neomycin, and the number of colonies were counted by Giemsa staining. Viability of UM-UC-3 cells was evaluated by 3-(4,5-dimethylthiazol-2-yl)-2,5-diphenyltetrazolium bromide (MTT) assay at 14 days after the treatment of neomycin with cell counting kit-8 according to manufacturer's recommendation (Wako, Osaka, Japan). […]

NHDF-Ad cells = assay: MTT assay of cell viability of normal human dermal fibroblasts treated with peptide; assay type: cell-based; conditions: DEPDC1 and ZNF224 hardly detectable
Description: (§3) UM-UC-3 and normal human dermal fibroblast-derived NHDF-Ad cell lines were incubated with the 11R peptides at the concentration of 0, 1, 2, or 3 micromol/L for 5 days. Each peptide was added at every 24 hours at the appropriate concentrations and the viability of cells was evaluated by MTT assay at every day after the treatment.
(§4) To examine the effect of DEPDC1611-628 peptide on cell growth of UM-UC-3 and NHDF cells, the cells were incubated with the DEPDC1611-628 or scramble peptides at the concentration of 0, 1, 2, or 3 micro M for 5 days, respectively. Each peptide was added at every 24 hours at the appropriate concentrations and the viability of cells was evaluated by MTT assay every day. Absorbance at 570 nm wavelength was measured with a Microplate Reader 550 (Bio-Rad). These experiments were performed in triplicate.

UM-UC-3 cells [2] = assay: MTT assay of cell viability of UM-UC-3 bladder cancer cells treated with 11R peptides; assay type: cell-based, human; conditions: UM-UC-3 cells; peptide 1, 2 or 3 micro M added every 24 hours for 5 days
Description: as §3, §4

T1 sequence (Q9NZL3 whole entry M118V/H562R, one chain of several): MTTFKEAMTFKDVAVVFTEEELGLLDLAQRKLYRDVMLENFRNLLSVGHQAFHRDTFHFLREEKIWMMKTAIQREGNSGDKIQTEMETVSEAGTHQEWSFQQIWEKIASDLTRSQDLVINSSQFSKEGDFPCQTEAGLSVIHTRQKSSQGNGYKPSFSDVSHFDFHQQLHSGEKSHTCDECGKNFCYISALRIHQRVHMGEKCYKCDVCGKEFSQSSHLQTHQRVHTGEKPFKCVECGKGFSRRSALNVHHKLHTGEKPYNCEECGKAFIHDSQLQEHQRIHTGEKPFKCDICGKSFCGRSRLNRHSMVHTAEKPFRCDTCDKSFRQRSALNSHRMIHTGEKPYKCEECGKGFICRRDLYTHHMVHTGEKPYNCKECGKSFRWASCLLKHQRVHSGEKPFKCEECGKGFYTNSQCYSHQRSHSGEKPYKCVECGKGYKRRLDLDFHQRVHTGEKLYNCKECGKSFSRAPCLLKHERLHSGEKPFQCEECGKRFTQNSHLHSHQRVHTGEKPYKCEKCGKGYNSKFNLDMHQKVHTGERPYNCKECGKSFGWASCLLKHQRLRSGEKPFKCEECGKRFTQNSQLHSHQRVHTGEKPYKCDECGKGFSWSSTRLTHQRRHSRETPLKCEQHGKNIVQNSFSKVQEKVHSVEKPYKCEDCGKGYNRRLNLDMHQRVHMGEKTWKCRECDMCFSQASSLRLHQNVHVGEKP

## 5′-CCAAAGUUCCGUAGUCUAA-3′ [si-DEPDC1]
A20 (TNFAIP3)
  A20 transcript (quantitative RT-PCR): time-dependent increase
DLG1
  DLG1 transcript (quantitative RT-PCR): time-dependent increase

## RRRRRRRRRRR-GGG-ISRMSQNVDMPKLHDAMG (RRRRRRRRRRRGGGISRMSQNVDMPKLHDAMG; An artificially synthesised dominant negative peptide) [11R-DEP624-641, 11R-linked DEPDC1 codons 624-641 peptide]
DEPDC1-ZNF224 complex
  complex formation between exogenously expressed DEPDC1-HA and ZNF224-Flag (immunoprecipitation): no inhibition

## RRRRRRRRRRR-GGG-PKRHGLHLSQENGEKIKHE (RRRRRRRRRRRGGGPKRHGLHLSQENGEKIKHE; An artificially synthesised dominant negative peptide) [11R-DEP148-166, 11R-linked DEPDC1 codons 148-166 peptide]
DEPDC1-ZNF224 complex
  complex formation between exogenously expressed DEPDC1-HA and ZNF224-Flag (immunoprecipitation): no inhibition

## RRRRRRRRRRR-GGG-NGEKIKHEIINEDQENAI (RRRRRRRRRRRGGGNGEKIKHEIINEDQENAI; An artificially synthesised dominant negative peptide) [11R-DEP159-176, 11R-linked DEPDC1 codons 159-176 peptide]
DEPDC1-ZNF224 complex
  complex formation between exogenously expressed DEPDC1-HA and ZNF224-Flag (immunoprecipitation): no inhibition

## 5′-CCGCAGGAACACATCAAGA-3′ [si-ZNF224-2]
UM-UC-3 cells [1]
  growth of UM-UC-3 cell (MTT and colony-formation assays): marked suppression growth
A20 (TNFAIP3)
  A20 transcript (quantitative RT-PCR): time-dependent increase
DLG1
  DLG1 transcript (quantitative RT-PCR): time-dependent increase
ZNF224 transcript
  amount of ZNF224 transcript (knockdown effect): significantly suppressed

## CC[C@H](C)[C@H](NC(=O)[C@H](CCSC)NC(=O)[C@H](CCCNC(=N)N)NC(=O)[C@H](CCSC)NC(=O)[C@H](CC(C)C)NC(=O)[C@H](CC(C)C)NC(=O)[C@H](CCC(N)=O)NC(=O)[C@H](CC(C)C)NC(=O)[C@H](CCCCN)NC(=O)[C@H](CCCNC(=N)N)NC(=O)[C@H](CCCNC(=N)N)NC(=O)[C@H](CC(N)=O)NC(=O)[C@@H]1CCCN1C(=O)[C@@H]1CCCN1C(=O)CNC(=O)CNC(=O)CNC(=O)[C@H](CCCNC(=N)N)NC(=O)[C@H](CCCNC(=N)N)NC(=O)[C@H](CCCNC(=N)N)NC(=O)[C@H](CCCNC(=N)N)NC(=O)[C@H](CCCNC(=N)N)NC(=O)[C@H](CCCNC(=N)N)NC(=O)[C@H](CCCNC(=N)N)NC(=O)[C@H](CCCNC(=N)N)NC(=O)[C@H](CCCNC(=N)N)NC(=O)[C@H](CCCNC(=N)N)NC(=O)[C@@H](N)CCCNC(=N)N)C(=O)N[C@@H](CO)C(=O)N[C@@H](CCCNC(=N)N)C(=O)N[C@@H](CCSC)C(=O)N[C@@H](CO)C(=O)O [11R-DEP611-628, RRRRRRRRRRR-GGG-PPNRRKLQLLMRMISRMS] (H-RRRRRRRRRRRGGGPPNRRKLQLLMRMISRMS-OH)
NHDF-Ad cells
  cell viability measured by MTT assay: no significant effect on cell viability
NHDF-Ad cells; listed as DEPDC1611-628
  cell viability measured by MTT assay: no off-target effect

## RRRRRRRRRRR-GGG-AIDALQLCCLLLPPPNRR (RRRRRRRRRRRGGGAIDALQLCCLLLPPPNRR; An artificially synthesised dominant negative peptide) [11R-DEP598-615, 11R-linked DEPDC1 codons 598-615 peptide]
UM-UC-3 cells [2]
  cell viability measured by MTT assay: moderate suppress in cell viability in dose-dependent manner
DEPDC1-ZNF224 complex; four peptides at 3 micro M added 6 hours after transfection, twenty-four hours later
  complex formation of DEPDC1-HA and ZNF224-FLAG (immunoprecipitation): moderate effect
DEPDC1-ZNF224 complex
  complex formation between exogenously expressed DEPDC1-HA and ZNF224-Flag (immunoprecipitation): slight inhibition

## RRRRRRRRRRR-GGG-LHDAMGTRSLMIHTFSRC (RRRRRRRRRRRGGGLHDAMGTRSLMIHTFSRC; An artificially synthesised dominant negative peptide) [11R-DEP636-653, 11R-linked DEPDC1 codons 636-653 peptide]
DEPDC1-ZNF224 complex
  complex formation between exogenously expressed DEPDC1-HA and ZNF224-Flag (immunoprecipitation): no inhibition

## 5′-CCGATTTGGATGATGAAGA-3′ [si-ZNF224-1]
UM-UC-3 cells [1]
  growth of UM-UC-3 cell (MTT and colony-formation assays): marked suppression growth
ZNF224 transcript
  amount of ZNF224 transcript (knockdown effect): significantly suppressed
